# Square brackets hold non-standard residues; d marks the D form. Peptide text beside a SMILES is read from it. * marks the point of attachment. d2Nal = N[C@H](Cc1ccc2ccccc2c1)C(=O)O; dPhg = N[C@@H](C(=O)O)c1ccccc1; Boc = CC(C)(C)OC(=O)*
# How the values were obtained:
# Type in all cases: biochemical
# Human factor XIa = biological target: T1, Human factor XIa (Homo sapiens, UniProt P03951); assay: Factor XIa assay, chromogenic substrate S2366; conditions: 100 times the IC50 for factor Xa divided by the IC50 of factor XIa
# T1 construct: purchased Enzyme Research Laboratories, Inc
# Experimental: (§1) To assay their activities, the compounds of the present invention are dissolved in buffer to give solutions containing concentrations ranging under assay concentrations from 0 to about 100 μM. The enzyme to be tested is then added to a solution containing a specified concentration of the test compound. Then after an incubation period, synthetic substrate for the enzyme being tested is added. The rate of substrate turnover is determined spectrophotometrically. The IC50 of the test compound is determined for each test compound in assays for factor xa, factor XIa, thrombin and tPA. IC50 is that concentration of test compound giving 50% inhibition of the substrate turnover. Percent selectivity is used to indicate selectivity of a compound in inhibiting Factor Xa in comparison with either Factor XIa, thrombin or tPA. Percent selectivity of a particular compound for either Factor XIa, thrombin or tPA refers to a number obtained by dividing the product of one hundred and the IC50 of the compound for Factor Xa by the IC50 of the compound for either Factor XIa, thrombin or tPA.
# (§2) The specificity of the peptide aldehydes through was determined in vitro by measurement of their IC50 against factor Xa, factor XIa, thrombin and tissue plasminogen activator (tPA). Peptide aldehyde which has been described in the art was run as a comparison. A specific concentration of enzyme and its substrate were challenged with varying concentrations of inhibitor. IC50 is that concentration of inhibitor giving 50% inhibition of catalytic activity, under the assay conditions. Specific assay procedures used are presented below.
# Enzyme activity was determined using as substrate, S2366 (L-pyroglutamyl-L-prolyl-L-arginine-p-nitroanilide hydrochloride) which was obtained from Kabi Diagnostica. The substrate was made up in deionized water prior to use.
# Human factor XIa was obtained from Enzyme Research Laboratories, Inc. The enzyme was diluted into TBSA prior to use.
# (§3) The assay was run by combining in appropriate wells 50 μL of TBSA, 50 μL of inhibitor in TBSA or TBSA (as negative control) and 50 μL of 2 nM human Factor XIa or TBSA (as background control). After incubating this mixture for 60 minutes at room temperature, 50 μL of 6 mM S-2366 was added to each well and the initial rate of the change of the optical density at 405 nm (OD405nm) for each well was determined. OD405nm was measured every 10 seconds for 5 minutes.
# Human factor Xa = biological target: T2, Human factor Xa (Homo sapiens, UniProt P00742); assay: Factor Xa assay, chromogenic substrate S2765; conditions: taken as 100 for each inhibitor by definition
# T2 construct: purchased Enzyme Research Laboratories
# Experimental: as §1, §2
# Enzyme activity was determined using as substrate, S2765 (N-α-benzyloxycarbonyl-D-argininyl-L-glycyl-L-arginine-p-nitroanilide dihydrochloride) which was obtained from Kabi Diagnostica. The substrate was made up in deionized water prior to use.
# Human factor Xa was obtained from Enzyme Research Laboratories. The enzyme was diluted into TBSA prior to use.
# as §3, with “Factor Xa” for “Factor XIa”, “of 1” for “of 6”, “mM S-2765” for “mM S-2366”
# [1] = biological target: T3, Human recombinant t-PA (Activase®) (Homo sapiens, UniProt P00750); assay: tPA assay, chromogenic substrate Pefachrome tPA; conditions: 100 times the IC50 for factor Xa divided by the IC50 of tPA
# T3 construct: purchased Genentech, Inc
# Experimental: as §1, §2
# Enzyme activity was determined using as substrate, Pefachrome tPA (O-methylsulfonate-D-hexahydrotyrosine-L-glycyl-L-argini ne-p-nit roanilide acetate salt) which was obtained from Centerchem, Inc. The substrate was made up in deionized water prior to use.
# Human recombinant t-PA (Activase®) was obtained from Genentech, Inc. The enzyme was reconstituted with water, then diluted into TBSA prior to use.
# The assay was run by combining in appropriate wells 50 μL of TBSA, 50 μL of inhibitor in TBSA or TBSA (as negative control) and 50 μL of 4 nM human recombinant tPA or TBSA (as background control). After incubating this mixture for 60 minutes at room temperature, 50 μL of 4 mM Pefachrome tPA was added to each well and the initial rate of the change of optical density at 405 nm (OD405nm) for each well was determined. OD405nm was measured every 10 seconds for 5 minutes.
# Human α-thrombin = biological target: T4, Human α-thrombin (Homo sapiens, UniProt P00734); assay: Thrombin assay, chromogenic substrate S2238; conditions: 100 times the IC50 for factor Xa divided by the IC50 of thrombin
# T4 construct: Human α-thrombin was obtained from Enzyme Research Laboratories, Inc; purchased Enzyme Research Laboratories, Inc
# Experimental: as §1, §2
# Enzyme activity was determined using as substrate, S2238 (D-phenylalanyl-L-pipecolyl-L-arginine-p-nitroanilide dihydrochloride) which was obtained from Kabi Diagnostica. The substrate was made up in deionized water prior to use.
# Human α-thrombin was obtained from Enzyme Research Laboratories, Inc. The enzyme was diluted into TBSA prior to use.
# The assay was run by combining in appropriate wells 50 μL of TBSA, 50 μL of inhibitor in TBSA or TBSA (as negative control) and 50 μL of 4 nM human α-thrombin or TBSA (as background control). After incubating this mixture for 60 minutes at room temperature, 50 μL of 0.24 mM S-2238 was added to each well and the initial rate of the change of optical density at 405 nm (OD405nm) for each well was determined. OD405nm was measured every 10 seconds for 5 minutes.
# T1 sequence (P03951 388-625 limits assumed): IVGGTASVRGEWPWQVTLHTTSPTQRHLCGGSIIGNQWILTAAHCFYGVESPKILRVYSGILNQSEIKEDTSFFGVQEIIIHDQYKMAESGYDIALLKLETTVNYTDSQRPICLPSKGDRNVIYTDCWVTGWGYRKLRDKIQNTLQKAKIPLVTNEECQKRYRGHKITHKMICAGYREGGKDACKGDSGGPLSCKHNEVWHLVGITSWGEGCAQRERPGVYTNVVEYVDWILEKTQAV
# T1 sequence (P03951 19-387 partner limits assumed): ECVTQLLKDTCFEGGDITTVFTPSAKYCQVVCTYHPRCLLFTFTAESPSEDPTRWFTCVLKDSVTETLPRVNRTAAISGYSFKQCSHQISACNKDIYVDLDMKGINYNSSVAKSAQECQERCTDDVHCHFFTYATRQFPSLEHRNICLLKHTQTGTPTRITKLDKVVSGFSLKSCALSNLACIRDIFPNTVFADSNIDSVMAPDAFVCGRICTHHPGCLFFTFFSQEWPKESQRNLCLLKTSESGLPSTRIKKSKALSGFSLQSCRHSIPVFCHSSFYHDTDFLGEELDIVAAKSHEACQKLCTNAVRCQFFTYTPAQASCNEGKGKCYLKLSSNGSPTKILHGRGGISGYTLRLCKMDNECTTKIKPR
# T3 sequence (P00750 36-562): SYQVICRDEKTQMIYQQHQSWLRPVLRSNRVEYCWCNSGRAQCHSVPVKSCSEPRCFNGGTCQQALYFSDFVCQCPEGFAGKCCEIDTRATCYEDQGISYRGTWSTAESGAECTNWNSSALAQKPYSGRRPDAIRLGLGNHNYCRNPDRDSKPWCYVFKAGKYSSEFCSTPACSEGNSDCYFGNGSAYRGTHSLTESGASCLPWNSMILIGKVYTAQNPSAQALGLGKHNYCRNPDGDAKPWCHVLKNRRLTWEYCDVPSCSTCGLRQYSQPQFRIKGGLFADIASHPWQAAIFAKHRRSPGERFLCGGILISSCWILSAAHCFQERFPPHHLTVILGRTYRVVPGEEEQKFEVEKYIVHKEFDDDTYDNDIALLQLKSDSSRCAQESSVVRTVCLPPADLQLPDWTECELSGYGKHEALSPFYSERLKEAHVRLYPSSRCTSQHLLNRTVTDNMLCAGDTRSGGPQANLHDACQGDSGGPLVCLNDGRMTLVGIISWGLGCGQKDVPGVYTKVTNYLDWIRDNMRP
# T2 sequence (P00742 235-488 limits assumed): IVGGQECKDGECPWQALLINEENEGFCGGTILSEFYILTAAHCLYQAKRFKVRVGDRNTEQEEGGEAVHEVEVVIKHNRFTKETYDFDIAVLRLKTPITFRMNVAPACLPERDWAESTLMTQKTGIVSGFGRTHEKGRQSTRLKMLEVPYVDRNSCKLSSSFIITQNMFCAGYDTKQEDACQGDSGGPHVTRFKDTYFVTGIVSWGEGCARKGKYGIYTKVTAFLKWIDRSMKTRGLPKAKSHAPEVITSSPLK
# T2 sequence (P00742 41-179 partner limits assumed): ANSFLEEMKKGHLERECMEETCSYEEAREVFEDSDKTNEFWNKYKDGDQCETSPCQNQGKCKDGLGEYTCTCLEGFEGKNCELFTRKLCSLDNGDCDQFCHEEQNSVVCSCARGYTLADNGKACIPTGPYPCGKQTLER
Structure (SMILES),Percent Selectivity XIa (Human factor XIa),Percent Selectivity Xa (Human factor Xa),Percent Selectivity tPA [1],Percent Selectivity Thrombin (Human α-thrombin)
"CC(C)(C)OC(=O)N[C@@H](C(=O)N[C@@H](Cc1ccccc1)C(=O)N[C@H](C=O)CCCNC(=N)N)c1ccccc1 [[2], N-t-butoxycarbonyl-D-2-phenylglycyl-L-phenylalanyl-L-araininal] (Boc-[dPhg]-Phe-Arg-aldehyde)",4.9,100,< 2.6,< 2.6
"CC(C)(C)OC(=O)N[C@H](Cc1ccc2ccccc2c1)C(=O)N[C@@H](Cc1ccccc1)C(=O)N[C@H](C=O)CCCNC(=N)N [[1], N-t-butoxycarbonyl-D-3-(2-naphthyl)alanyl-L-phenylalanyl-L-araininal] (Boc-[d2Nal]-Phe-Arg-aldehyde)",1.4,100,< 0.9,1.6
"CC(C)(C)OC(=O)N[C@H](Cc1ccccc1)C(=O)N1CC[C@H](c2ccccc2)[C@H]1C(=O)N[C@H](C=O)CCCNC(=N)N (relative stereo) [[10], N-t-butoxycarbonyl-D-phenylalanyl-L-(3-trans-phenyl)prolinyl-L-argininal]",< 2.5,100,< 2.5,< 2.5
"CC(C)(C)OC(=O)N[C@H](Cc1ccccc1)C(=O)N[C@@H](Cc1ccccc1)C(=O)N[C@H](C=O)CCCNC(=N)N [[4], N-t-butoxycarbonyl-D-phenylalanyl-L-phenylalanyl-L-argininal] (Boc-[dF]-Phe-Arg-aldehyde)",0.8,100,< 0.8,< 0.8
"CC(C)(C)OC(=O)NC(C(=O)N[C@@H](Cc1cccc2ccccc12)C(=O)N[C@H](C=O)CCCNC(=N)N)c1ccc(-c2ccccc2)cc1 (stereo partly drawn) [[7], N-t-butoxycarbonyl-D,L-(α-biphenyl)qlycyl-L-3-(1-naphthyl)alanyl-L-argininal]",< 10,100,< 10,< 10
